Measured values reported in ChEMBL document CHEMBL5360606, “Discovery of New Binders for DCAF1, an Emerging Ligase Target in the Targeted Protein Degradation Field” (ACS Med Chem Lett, 2023).

How the values were obtained:
Polycomb protein EED [1] = molecular target: T1, Polycomb protein EED (Homo sapiens, UniProt O75530); test: Binding affinity to his-tagged EED (76 to 441 residues) (unknown origin) expressed in Escherichia coli BL21 (DE3) assessed as dissociation constant by SPR analysis
Polycomb protein EED [2] = molecular target: T1, Polycomb protein EED; test: Binding affinity to his-tagged EED (76 to 441 residues) (unknown origin) expressed in Escherichia coli BL21 (DE3) using H3K27me3 as substrate assessed as dissociation constant

T1 sequence (O75530 whole entry, the tested form may be a part): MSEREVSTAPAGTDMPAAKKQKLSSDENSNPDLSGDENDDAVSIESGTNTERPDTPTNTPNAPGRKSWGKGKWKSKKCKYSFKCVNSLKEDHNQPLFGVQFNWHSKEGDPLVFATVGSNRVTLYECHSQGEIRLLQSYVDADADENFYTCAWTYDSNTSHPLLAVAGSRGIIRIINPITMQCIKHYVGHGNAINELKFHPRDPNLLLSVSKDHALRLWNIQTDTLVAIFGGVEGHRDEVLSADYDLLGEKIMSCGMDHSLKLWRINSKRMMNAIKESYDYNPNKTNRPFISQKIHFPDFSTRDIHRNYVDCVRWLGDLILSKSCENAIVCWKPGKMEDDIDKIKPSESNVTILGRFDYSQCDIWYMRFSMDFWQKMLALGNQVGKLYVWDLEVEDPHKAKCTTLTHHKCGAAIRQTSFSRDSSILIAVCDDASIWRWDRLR

Row | Kd (Polycomb protein EED [2]) | SMILES | Kd (Polycomb protein EED [1])
1 | – | Fc1ccccc1C1=Cc2ccccc2C2=NCCN12 | 13.5 µM
2 | 25 µM | Clc1ccc(C2(C3=Cc4ccccc4C4=NCCN34)CC2)cc1 | –
3 | – | NC1=NCC(c2cccc(Oc3ccc(Cl)cc3)c2)C1 (centres undefined) | ~360 µM
4 | 21 µM | CC(C)(Cc1ccccc1)C1=Cc2ccccc2C2=NCCN12 | –
